# From patent US5593984A, “Cephalosporin derivatives” (Yuhan Corporation, priority 1992, dated 1997)
# Assays:
# Type in all cases: cell-based
# [1] = system: Staph. aureus ATCC 6538P; experiment: MIC by agar dilution, Staph. aureus ATCC 6538P; conditions: Staph. aureus ATCC 6538P, agar dilution, Mueller-Hinton agar; for MIC: Staphylococcus aureus, ATCC6538P, 17 h, read-out: Minimal Inhibitory Concentration (MIC)
# In short: (§1)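 Agar incorporation method in Mueller-Hinton medium, compound in two-fold series; 10^6 CFU/ml spots; read after 17±1 h, 35°-37° C.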
# [2] = system: Staph. aureus C-57; experiment: MIC by agar dilution, Staph. aureus C-57; conditions: Mueller-Hinton agar; for MIC: Staphylococcus aureus, C57, 17 h, read-out: Minimal Inhibitory Concentration (MIC)
# In short: as §1
# [3] = system: K. pneumoniae NCTC 9632; experiment: MIC by agar dilution, K. pneumoniae NCTC 9632; conditions: K. pneumoniae NCTC 9632, agar dilution, Mueller-Hinton agar; for MIC: Klebsiella pneumoniae, NCTC9632, 17 h, read-out: Minimal Inhibitory Concentration (MIC)
# In short: as §1
# [4] = system: Ser. marcescens IFO 12648; experiment: MIC by agar dilution, Ser. marcescens IFO 12648; conditions: Ser. marcescens IFO 12648, agar dilution, Mueller-Hinton agar; for MIC: Serratia marcescens, IFO12648, 17 h, read-out: Minimal Inhibitory Concentration (MIC)
# In short: as §1
# [5] = system: Prov. stuartii IFO 12930; experiment: MIC by agar dilution, Prov. stuartii IFO 12930; conditions: Mueller-Hinton agar; for MIC: Providencia stuartii, IFO12930, 17 h, read-out: Minimal Inhibitory Concentration (MIC)
# In short: as §1
# [6] = system: Staph. aureus C-5216; experiment: MIC by agar dilution, Staph. aureus C-5216; conditions: Mueller-Hinton agar; for MIC: Staphylococcus aureus, C5216, 17 h, read-out: Minimal Inhibitory Concentration (MIC)
# In short: as §1
# [7] = system: B. subtilis ATCC 6633; experiment: MIC by agar dilution, B. subtilis ATCC 6633; conditions: B. subtilis ATCC 6633, agar dilution, Mueller-Hinton agar; for MIC: Bacillus subtilis, ATCC6633, 17 h, read-out: Minimal Inhibitory Concentration (MIC)
# In short: as §1
# [8] = system: S. epidermidis ATCC 12228; experiment: MIC by agar dilution, S. epidermidis ATCC 12228; conditions: S. epidermidis ATCC 12228, agar dilution, Mueller-Hinton agar; for MIC: Staphylococcus epidermidis, ATCC12228, 17 h, read-out: Minimal Inhibitory Concentration (MIC)
# In short: as §1
# [9] = system: Ent. cloacae IFO 13535; experiment: MIC by agar dilution, Ent. cloacae IFO 13535; conditions: Ent. cloacae IFO 13535, agar dilution, Mueller-Hinton agar; for MIC: Enterobacter cloacae, IFO13535, 17 h, read-out: Minimal Inhibitory Concentration (MIC)
# In short: as §1
# [10] = system: E. coli DY-1; experiment: MIC by agar dilution, E. coli DY-1; conditions: E. coli DY-1, agar dilution, Mueller-Hinton agar; for MIC: Escherichia coli, DY1, 17 h, read-out: Minimal Inhibitory Concentration (MIC)
# In short: as §1
# [11] = system: Staph. aureus Smith; experiment: MIC by agar dilution, Staph. aureus Smith; conditions: Mueller-Hinton agar; for MIC: Staphylococcus aureus, 17 h, read-out: Minimal Inhibitory Concentration (MIC)
# In short: as §1
# [12] = system: M. morganii DY-1; experiment: MIC by agar dilution, M. morganii DY-1; conditions: M. morganii DY-1, agar dilution, Mueller-Hinton agar; for MIC: Morganella morganii, DY1, 17 h, read-out: Minimal Inhibitory Concentration (MIC)
# In short: as §1
# [13] = system: Staph. aureus C-5113; experiment: MIC by agar dilution, Staph. aureus C-5113; conditions: Mueller-Hinton agar; for MIC: Staphylococcus aureus, C5113, 17 h, read-out: Minimal Inhibitory Concentration (MIC)
# In short: as §1
# [14] = system: Ps. aeruginosa ATCC 10145; experiment: MIC by agar dilution, Ps. aeruginosa ATCC 10145; conditions: Mueller-Hinton agar; for MIC: Pseudomonas aeruginosa, ATCC10145, 17 h, read-out: Minimal Inhibitory Concentration (MIC)
# In short: as §1
# [15] = system: Ps. aeruginosa DY-2; experiment: MIC by agar dilution, Ps. aeruginosa DY-2; conditions: Ps. aeruginosa DY-2, agar dilution, Mueller-Hinton agar; for MIC: Pseudomonas aeruginosa, DY2, 17 h, read-out: Minimal Inhibitory Concentration (MIC)
# In short: as §1
# [16] = system: Ent. aerogenes IFO 12979; experiment: MIC by agar dilution, Ent. aerogenes IFO 12979; conditions: Mueller-Hinton agar; for MIC: Klebsiella aerogenes, IFO12979, 17 h, read-out: Minimal Inhibitory Concentration (MIC)
# In short: as §1
# [17] = system: E. coli No. 29; experiment: MIC by agar dilution, E. coli No. 29; conditions: E. coli No. 29, agar dilution, Mueller-Hinton agar; for MIC: Escherichia coli, 17 h, read-out: Minimal Inhibitory Concentration (MIC)
# In short: as §1
# [18] = system: Ps. aeruginosa NCTC 10490; experiment: MIC by agar dilution, Ps. aeruginosa NCTC 10490; conditions: Mueller-Hinton agar; for MIC: Pseudomonas aeruginosa, NCTC10490, 17 h, read-out: Minimal Inhibitory Concentration (MIC)
# In short: as §1
# [19] = system: E. coli NIHJ JC-2; experiment: MIC by agar dilution, E. coli NIHJ JC-2; conditions: E. coli NIHJ JC-2, agar dilution, Mueller-Hinton agar; for MIC: Escherichia coli, NIHJJC2, 17 h, read-out: Minimal Inhibitory Concentration (MIC)
# In short: as §1
# [20] = system: P. vulgaris NCTC 8313; experiment: MIC by agar dilution, P. vulgaris NCTC 8313; conditions: P. vulgaris NCTC 8313, agar dilution, Mueller-Hinton agar; for MIC: Proteus vulgaris, NCTC8313, 17 h, read-out: Minimal Inhibitory Concentration (MIC)
# In short: as §1
MIC [1] [µg/mL],MIC [2] [µg/mL],MIC [3] [µg/mL],MIC [4] [µg/mL],MIC [5] [µg/mL],MIC [6] [µg/mL],MIC [7] [µg/mL],MIC [8] [µg/mL],MIC [9] [µg/mL],MIC [10] [µg/mL],MIC [11] [µg/mL],MIC [12] [µg/mL],MIC [13] [µg/mL],MIC [14] [µg/mL],MIC [15] [µg/mL],MIC [16] [µg/mL],MIC [17] [µg/mL],MIC [18] [µg/mL],MIC [19] [µg/mL],MIC [20] [µg/mL],SMILES,other results
0.1,25,0.1,0.1,0.012,0.39,0.2,0.025,0.39,0.05,0.39,0.1,0.39,1.56,25,0.1,0.05,0.39,0.05,0.2,"Nc1nc(/C(=N\O)C(=O)N[C@@H]2C(=O)N3C(C(=O)[O-])=C(C[n+]4ccn5cccc5c4)CS[C@H]23)cs1 [Ex. 7, 7-β-[(Z)-2-(2-aminothiazol-4-yl)-2-hydroxyiminoacetamido]-3-(pyrrolo[1,2-a]pyrazinium-2-yl)methyl-3-cephem-4-carboxylate]",
0.2,12.5,0.05,0.05,0.05,1.56,0.2,0.1,0.2,≤ 0.006,0.39,0.05,1.56,3.13,3.13,0.025,≤ 0.006,0.78,0.05,0.012,"CCO/N=C(\C(=O)N[C@@H]1C(=O)N2C(C(=O)[O-])=C(C[n+]3cc(CC)n4cccc4c3)CS[C@H]12)c1csc(N)n1 [Ex. 38, 7-β-[(Z)-2-(2-aminothiazol-4-yl)-2-ethoxyiminoacetamido]-3-(4-ethylpyrrolo[1,2-a]pyrazinium-2-yl)methyl-3-cephem-4-carboxylate]",
0.78,25,0.025,0.025,≤ 0.006,3.13,0.1,0.2,0.1,0.012,1.56,0.025,6.25,0.78,1.56,0.025,≤ 0.006,0.1,0.012,0.05,"CO/N=C(\C(=O)N[C@@H]1C(=O)N2C(C(=O)[O-])=C(C[n+]3ccn4ccc(CO)c4c3)CS[C@H]12)c1nsc(N)n1 [Ex. 55, 7-β-[(Z)-2-(5-amino-1,2,4-thiadiazol-3-yl)-2-methoxyiminoacetamido]-3-(8-hydroxymethylpyrrolo[1,2-a]-pyrazinium-2-yl)methyl-3-cephem-4-carboxylate]",
,,,,,,,,,,,,,,,,,,,,"CCO/N=C(\C(=O)N[C@@H]1C(=O)N2C(C(=O)[O-])=C(C[n+]3ccn4c(C(N)=O)ccc4c3C)CS[C@H]12)c1csc(N)n1 [Ex. 44, 7-β-[(Z)-2-(2-aminothiazol-4-yl)-2-ethoxyiminoacetamido]-3-(6-carbamoyl-1-methylpyrrolo[1,2-a]pyrazinium-2-yl)methyl-3-cephem-4-carboxylate]",Minimal Inhibitory Concentration (MIC) [1]: 0.200 µg/mL; Minimal Inhibitory Concentration (MIC) [2]: 100.000 µg/mL; Minimal Inhibitory Concentration (MIC) [3]: 0.050 µg/mL; Minimal Inhibitory Concentration (MIC) [4]: 0.050 µg/mL; Minimal Inhibitory Concentration (MIC) [5]: 0.012 µg/mL; Minimal Inhibitory Concentration (MIC) [6]: 1.560 µg/mL; Minimal Inhibitory Concentration (MIC) [7]: 0.390 µg/mL; Minimal Inhibitory Concentration (MIC) [8]: 0.100 µg/mL; Minimal Inhibitory Concentration (MIC) [9]: 0.100 µg/mL; Minimal Inhibitory Concentration (MIC) [10]: 0.025 µg/mL; Minimal Inhibitory Concentration (MIC) [11]: 0.780 µg/mL; Minimal Inhibitory Concentration (MIC) [12]: 0.100 µg/mL; Minimal Inhibitory Concentration (MIC) [13]: 1.560 µg/mL; Minimal Inhibitory Concentration (MIC) [14]: 3.130 µg/mL; Minimal Inhibitory Concentration (MIC) [15]: 6.250 µg/mL; Minimal Inhibitory Concentration (MIC) [16]: 0.050 µg/mL; Minimal Inhibitory Concentration (MIC) [17]: 0.025 µg/mL; Minimal Inhibitory Concentration (MIC) [18]: 0.780 µg/mL; Minimal Inhibitory Concentration (MIC) [19]: 0.050 µg/mL; Minimal Inhibitory Concentration (MIC) [20]: 0.050 µg/mL
